Assay results published in patent US20240217992A1, “RETINOIC ACID RECEPTOR AGONIST, PREPARATION METHOD THEREFOR, INTERMEDIATE, PHARMACEUTICAL COMPOSITION AND USE” (JIANGXI KERUI PHARMACEUTICAL CO., LTD., priority 2021, published 2024).

How the values were obtained:
[1] = target: T1, RARγ (Homo sapiens, UniProt P13631); test: Agonist activity on RARγ, dual luciferase reporter gene assay in transfected HEK-293 cells; type: cell-based; details: for EC50: HEK-293 cells, 24 h incubation, firefly/Renilla luciferase signal; for selectivity on RARγ compared with Trifarotene: RARγ versus RARα, from Table 2; for agonist activity on RARγ compared with Trifarotene: comparison of Table 2 EC50 values
T1 construct: expressed in transfected cells; host or cells: HEK-293 (ATCC #CRL-1573)
T1 sequence (P13631 1-454): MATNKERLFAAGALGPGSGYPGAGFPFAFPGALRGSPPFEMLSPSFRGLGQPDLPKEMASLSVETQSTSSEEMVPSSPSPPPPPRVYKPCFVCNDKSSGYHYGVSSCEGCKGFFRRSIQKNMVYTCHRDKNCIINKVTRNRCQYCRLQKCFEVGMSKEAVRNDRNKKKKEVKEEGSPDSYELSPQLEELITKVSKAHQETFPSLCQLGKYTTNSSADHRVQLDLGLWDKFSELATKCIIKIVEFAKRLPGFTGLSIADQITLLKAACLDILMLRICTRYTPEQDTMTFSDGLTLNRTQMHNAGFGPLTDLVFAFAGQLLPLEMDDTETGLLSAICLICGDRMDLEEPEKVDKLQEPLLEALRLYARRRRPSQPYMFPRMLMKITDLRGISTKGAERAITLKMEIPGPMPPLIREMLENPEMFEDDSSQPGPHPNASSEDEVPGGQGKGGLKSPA
Experimental: (§1) • 1. Day 1: Cell culture. The culture dish was treated with trypsin, and then cells at an appropriate concentration were inoculated into 10 mL of culture medium. Cell culture conditions: 37° C., 5% CO2, humid environment. • 2. Day 3: Transfection with FuGENE transfection reagent. A transfection mixture was prepared using the method of the supplier's instructions, then the tube was shaken vigorously to mix well, and the transfection mixture was left to incubate for 15 minutes at room temperature. The mixture was treated with trypsin to determine the cell density, and the cell suspension was appropriately diluted to the appropriate volume and density. The appropriate transfection reagent mixture was added thereto, and the cell suspension was added to a 96-well plate at 100 μL per well. The 96-well plate was incubated for 24 hours under the cell culture conditions in step 1. • 3. Day 4: Addition of test compound. The compound was formulated into a DMSO stock solution at a concentration of 210× and diluted to make a solution at a concentration of 21× by the addition of 9 times the amount of solvent. 5 μL of the compound solution at a concentration of 21× was added to each well and incubated for 24 hours under the same conditions as step 1. • 4. Day 5: Plate reading. The Dual Luciferase Reporter Gene Assay System was left at room temperature for 30 minutes prior to use, and […] was added to each well of the 96-well plate to detect the intensity of firefly luciferin in an appropriate manner. Afterwards, Stop&Glo reagent was added to detect the intensity of Renilla luciferin. • 5. Data processing. Signal=intensity of firefly luciferin/intensity of Renilla luciferin, multiple of agonist activation=compound signal/baseline signal (the intensity of the baseline signal was obtained from DMSO solution without the compound). pEC50 values were obtained by processing the data with GraphPad Prism, which were further converted to EC50 values.

[2] = target: T2, RARα (Homo sapiens, UniProt P10276); test: Agonist activity on RARα, dual luciferase reporter gene assay in transfected HEK-293 cells; type: cell-based; details: 24 h incubation, firefly/Renilla luciferase signal
T2 construct: expressed in transfected cells; host or cells: HEK-293 (ATCC #CRL-1573)
T2 sequence (P10276 1-462): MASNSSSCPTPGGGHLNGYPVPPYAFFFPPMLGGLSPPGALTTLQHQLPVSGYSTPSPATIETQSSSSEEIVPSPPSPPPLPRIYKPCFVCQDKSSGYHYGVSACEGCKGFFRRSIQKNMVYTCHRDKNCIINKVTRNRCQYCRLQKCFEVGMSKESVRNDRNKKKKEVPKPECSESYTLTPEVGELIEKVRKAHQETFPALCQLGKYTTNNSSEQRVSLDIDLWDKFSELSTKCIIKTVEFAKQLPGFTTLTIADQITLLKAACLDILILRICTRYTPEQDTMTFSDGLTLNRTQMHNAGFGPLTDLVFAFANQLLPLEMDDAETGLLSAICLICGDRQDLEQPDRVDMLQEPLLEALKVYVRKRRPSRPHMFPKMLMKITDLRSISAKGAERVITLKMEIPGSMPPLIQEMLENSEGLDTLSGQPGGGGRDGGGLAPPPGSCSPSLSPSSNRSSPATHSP
Experimental: as §1

[3] = tested on: human hepatocytes; details: 10 µM
Experimental: (§2) The metabolic stability of the compounds was tested using human hepatocytes.
(§3) • 1. The compounds and hepatocytes were incubated for 240 minutes in the following system.
(§4) The culture was inactivated with 2 volumes of acetonitrile (0.1% FA) and then centrifuged for 15 minutes at 16,000 g. • 3. The supernatant was analyzed by LC-MS/MS for prototype compounds and metabolites.

[4] = tested on: human hepatocytes; test: Hepatocyte stability (metabolic stability in human hepatocytes, LC-MS/MS); details: for Normalized area (240 minutes), prototype compound peak (molecular weight shift 0.00): human hepatocytes 1.0 × 10^6 cells/mL, 37° C.
Experimental: as §2, §3, §4

Compound | EC50 [1] [nM] | selectivity on RARγ compared with Trifarotene [1] | EC50 [2] [nM] | agonist activity on RARγ compared with Trifarotene [1] | Normalized area (240 minutes), Peak 4 of compound I-1 (molecular weight shift 0.02) [3] [%] | prototype compound remaining after 240 minutes of incubation in hepatocytes ([4]; human hepatocytes) | Normalized area (240 minutes), prototype compound peak (molecular weight shift 0.00) ([4]; 10 μM) [%] | Normalized area (240 minutes), Peak 3 of Trifarotene (molecular weight shift 16.00) ([4]; human hepatocytes, 10 μM, metabolite peak m/z 476.24) [%] | Normalized area (240 minutes), Peak 1 of Trifarotene (molecular weight shift 31.99) ([4]; human hepatocytes, 10 μM, metabolite peak m/z 492.24, retention time 4.18 minutes) [%] | Normalized area (240 minutes), Peak 4 of Trifarotene (molecular weight shift 31.99) ([4]; human hepatocytes, 10 μM, metabolite peak m/z 492.24, retention time 7.76 minutes) [%] | Normalized area (240 minutes), Peak 2 of Trifarotene (molecular weight shift 192.03) ([4]; human hepatocytes, 10 μM, metabolite peak m/z 652.27) [%]
C[Si](C)(C)c1cc(-c2cc(-c3ccc(C(=O)O)cc3)ccc2OCCCCO)ccc1N1CCCC1 [Compound I-3, 4′-(4-hydroxybutoxy)-4″-(pyrrolidin-1-yl)-3″-(trimethylsilyl)-[1,1′:3′,1″-terphenyl]-4-carboxylic acid] | 9.08 | better than that of Trifarotene | 382 | – | – | – | – | – | – | – | –
C[Si]1(C)CC[Si](C)(C)c2cc(-c3cc(-c4ccc(C(=O)O)cc4)ccc3OCCO)ccc21 [Compound I-5, 4′-(2-hydroxyethoxy)-3′-(1,1,4,4-tetramethyl-1,2,3,4-tetrahydrobenzo[b][1,4]disilan-6-yl)-[1,1′-biphenyl]-4-carboxylic acid] | 1.05 | better than that of Trifarotene | 18.5 | equal to or stronger than that of Trifarotene | – | – | – | – | – | – | –
C[Si](C)(C)c1cc(-c2cc(-c3ccc(C(=O)O)cc3)ccc2OCCO)ccc1N1CCCC1 [Compound I-1, 4′-(2-hydroxyethoxy)-4′-(pyrrolidin-1-yl)-3′-(trimethylsilyl)-[1,1′:3′,1′-terphenyl]-4-carboxylic Acid] | 0.88 | better than that of Trifarotene | 64 | equal to or stronger than that of Trifarotene | 68.15 | less than 1% | 0.12 | – | – | – | –
CC(C)(C)c1cc(-c2cc(-c3ccc(C(=O)O)cc3)ccc2OCCO)ccc1N1CCCC1 [Trifarotene] | – | – | – | – | – | 13.57% | 13.57 | 54.29 | 9.35 | 9.10 | 9.98
C[Si](C)(C)c1cc(-c2cc(-c3ccc(C(=O)O)cc3)ccc2OCCCO)ccc1N1CCCC1 [Compound I-2, 4′-(3-hydroxypropoxy)-4″-(pyrrolidin-1-yl)-3″-(trimethylsilyl)-[1,1′:3′,1″-terphenyl]-4-carboxylic acid] | 0.77 | better than that of Trifarotene | 15.5 | equal to or stronger than that of Trifarotene | – | – | – | – | – | – | –
